Earlier results, collected in patent US20240415880A1, “Treatment of Breast and Other Cancers Using Zinc Chloride Instead of Radiation” (priority 2023, published 2024).

Columns and labels:
[1] = test system: advanced melanomas; settings: 103 consecutive advanced melanomas; zinc chloride combined with surgery
[2] = test system: locally advanced breast cancer tumors; settings: case presentations
[3] = test system: cancers of the mouth, accessory nasal sinuses, larynx, parotid and other salivary glands, anal region, vulva and accessible sarcomas

[Cl-].[Cl-].[Zn+2] [zinc chloride, Zinc chloride]
improvement in cure rates over conventional surgery of melanomas [1]: significant and statistical (p=0.003) improvement | healing of locally advanced breast cancer tumors [2]: remarkable healing | treatment outcome of cancers [3]: successfully treated
